# Laboratory results taken from US10329294B2, “Pyrazolopyrimidine inhibitors of IRAK4 activity” (MERCK SHARP & DOHME CORP., priority 2015, dated 2019).
# Counter-ions that a name gives are not always drawn.
# Target: IRAK4 (Homo sapiens (Human), UniProt Q9NWZ3)
# Assay: IRAK4 Kinase Assay
# Format: biochemical
# Details: IMAP fluorescence polarization, 0.5 nM GST tagged IRAK4, 100 μM ATP, 30 minutes at 25° C.; read-out: IRAK4 IC50
# Protocol: The kinase activity of IRAK4 is determined by its ability to catalyze the phosphorylation of a fluorescent polypeptide substrate. The extent of phosphorylation is measured using the IMAP technology (Molecular Devices) where the phosphorylated fluorescent substrate binds to the large M(III)-based nanoparticles which reduces the rotational speed of the substrate and thus increases its fluorescent polarization (FP).
# 20 μL reaction mixture contains 10 mM TriHCl, pH 7.2, 0.5 nM GST tagged IRAK4 (SignalChem), 100 nM fluorescent peptide substrate (RP7030, Molecular Devices), 100 μM ATP, 1 mM DDT, 1 mM MgCl2, and 0.01% Tween 20. The reaction is initiated by the addition of ATP. After incubation for 30 minutes at 25° C., 60 μL of Progressive IMAP Reagent (Molecular Devices) is added to stop the reaction. Change in RP7030's FP is determined by a FP reader (Analyst HT, LJL BioSystems).
# Chain of IRAK4 (Q9NWZ3 whole entry): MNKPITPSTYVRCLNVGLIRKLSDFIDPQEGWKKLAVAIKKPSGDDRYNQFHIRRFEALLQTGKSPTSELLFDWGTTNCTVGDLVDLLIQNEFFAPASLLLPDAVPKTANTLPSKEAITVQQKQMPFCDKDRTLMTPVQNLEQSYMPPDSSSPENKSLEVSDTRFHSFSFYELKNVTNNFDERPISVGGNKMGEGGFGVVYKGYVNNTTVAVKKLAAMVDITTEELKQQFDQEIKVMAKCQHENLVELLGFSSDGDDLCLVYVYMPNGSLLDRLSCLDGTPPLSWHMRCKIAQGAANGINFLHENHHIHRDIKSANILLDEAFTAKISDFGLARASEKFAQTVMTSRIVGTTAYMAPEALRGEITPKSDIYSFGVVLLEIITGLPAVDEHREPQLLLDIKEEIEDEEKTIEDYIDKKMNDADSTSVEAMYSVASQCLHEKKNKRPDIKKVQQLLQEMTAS
row,SMILES,IC50 [nM]
1,"Cn1cc(NC(=O)c2cnn3ccc(N4C[C@@H]5CNC[C@H]4C5)nc23)c(C(F)(F)F)n1 (single isomer, unassigned) [Example 83, 5-[(1S,5R)- or (1R,5S)-3,6-diazabicyclo[3.2.1]oct-6-yl]-N-[1-methyl-3-(trifluoromethyl)-1H-pyrazol-4-yl]pyrazolo[1,5-a]pyrimidine-3-carboxamide]",33
2,"O=C(Nc1ccccc1I)c1cnn2ccc(N[C@@H]3CCCC[C@@H]3O)nc12 [Example 101, 5-{[(1R,2S)-2-hydroxycyclohexyl]amino}-N-(2-iodophenyl)pyrazolo[1,5-a]pyrimidine-3-carboxamide]",7650
3,"Cn1cc(NC(=O)c2cnn3ccc(N[C@@H]4CNC[C@@H](F)C4)nc23)c(C(F)F)n1 [Example 256, N-[3-(difluoromethyl)-1-methyl-1H-pyrazol-4-yl]-5-{[(3S,5S)-5-fluoropiperidin-3-yl]amino}pyrazolo[1,5-a]pyrimidine-3-carboxamide]",8
4,"Cn1cc(NC(=O)c2cnn3ccc(N[C@@H]4CCCCNC4)nc23)c(C(F)F)n1 (single isomer, unassigned) [Example 162, 5-[(3S)- or (3R)-azepan-3-ylamino]-N-[3-(difluoromethyl)-1-methyl-1H-pyrazol-4-yl]pyrazolo[1,5-a]pyrimidine-3-carboxamide trifluoroacetate]",0.2
5,"Cn1cc(NC(=O)c2cnn3ccc(N4CC5CNCC4C5)nc23)c(C(F)(F)F)n1 (stereo not drawn) [Example 82, 5-(3,6-diazabicyclo[3.2.1]oct-6-yl)-N-[1-methyl-3-(trifluoromethyl)-1H-pyrazol-4-yl]pyrazolo[1,5-a]pyrimidine-3-carboxamide trifluoroacetate]",114
6,"Cn1cc(NC(=O)c2cnn3ccc(N4[C@@H]5CCNC[C@H]4CC5)nc23)c(C(F)(F)F)n1 (single isomer, unassigned) [Example 221, 5-[(1R,6S)- or (1S,6R)-3,9-diazabicyclo[4.2.1]non-9-yl]-N-[1-methyl-3-(trifluoromethyl)-1H-pyrazol-4-yl]pyrazolo[1,5-a]pyrimidine-3-carboxamide trifluoroacetate]",330
7,"Cn1cc(NC(=O)c2cnn3ccc(N4CC[C@@H]5C[C@H]4CN5)nc23)c(C(F)(F)F)n1 [Example 213, 5-[(1S,5R)-2,6-diazabicyclo[3.2.1]oct-2-yl]-N-[1-methyl-3-(trifluoromethyl)-1H-pyrazol-4-yl]pyrazolo[1,5-a]pyrimidine-3-carboxamide]",3
8,"Cn1cc(NC(=O)c2cnn3ccc(N[C@@H]4CCCCC[C@@H]4N)nc23)c(C(F)(F)F)n1 (single isomer, unassigned) [Example 54, 5-{[(1R,2S)- or (1S,2R)-2-aminocycloheptyl]amino}-N-[1-methyl-3-(trifluoromethyl)-1H-pyrazol-4-yl]pyrazolo[1,5-a]pyrimidine-3-carboxamide]",63
9,"Cn1cc(NC(=O)c2cnn3ccc(N4C5CCC4CNC5)nc23)c(C(F)(F)F)n1 [Example 226, 5-(3,8-diazabicyclo[3.2.1]oct-8-yl)-N-[1-methyl-3-(trifluoromethyl)-1H-pyrazol-4-yl]pyrazolo[1,5-a]pyrimidine-3-carboxamide trifluoroacetate]",2
10,"Cn1cc(NC(=O)c2cnn3ccc(N4C[C@@H](O)C[C@H](O)C4)nc23)c(C(F)(F)F)n1 [Example 21, 5-[(3S,5S)-3,5-dihydroxypiperidin-1-yl]-N-[1-methyl-3-(trifluoromethyl)-1H-pyrazol-4-yl]pyrazolo[1,5-a]pyrimidine-3-carboxamide]",20

# Second part, the compound after the results:
row,IC50 [nM],SMILES
1,1,"CC(C)(C)n1cc(NC(=O)c2cnn3ccc(N[C@@H]4CCCC[C@@H]4N)nc23)c(C(F)(F)F)n1 [Example 294, 5-{[(1R,2S)-2-aminocyclohexyl]amino}-N-[1-tert-butyl-3-(trifluoromethyl)-1H-pyrazol-4-yl]pyrazolo[1,5-a]pyrimidine-3-carboxamide trifluoroacetate]"
2,1010,"O=C(Nc1ccsc1C(F)(F)F)c1cnn2ccc(N3CCCNCC3)nc12 [Example 153, 5-(1,4-diazepan-1-yl)-N-[2-(trifluoromethyl)thiophen-3-yl]pyrazolo[1,5-a]pyrimidine-3-carboxamide trifluoroacetate]"
3,4,"Cn1cc(NC(=O)c2cnn3ccc(N4CC[C@@H](F)[C@@H](N)C4)nc23)c(C(F)F)n1 (single isomer, unassigned) [Example 178, 5-[(3S,4R)- or (3R,4S)-3-amino-4-fluoropiperidin-1-yl]-N-[3-(difluoromethyl)-1-methyl-1H-pyrazol-4-yl]pyrazolo[1,5-a]pyrimidine-3-carboxamide trifluoroacetate]"
4,0.9,"N[C@H]1CCCC[C@H]1Nc1ccn2ncc(C(=O)Nc3cscc3Br)c2n1 [Example 76, 5-{[(1R,2S)-2-aminocyclohexyl]amino}-N-(4-bromothiophen-3-yl)pyrazolo[1,5-a]pyrimidine-3-carboxamide trifluoroacetate]"
5,144,"Cn1cc(NC(=O)c2cnn3ccc(N4CC5CCC4CCN5)nc23)c(C(F)(F)F)n1 (stereo not drawn) [Example 73, 5-(2,6-diazabicyclo[3.2.2]non-6-yl)-N-[1-methyl-3-(trifluoromethyl)-1H-pyrazol-4-yl]pyrazolo[1,5-a]pyrimidine-3-carboxamide trifluoroacetate]"
6,18,"O=C(Nc1cn(CC(F)F)nc1C(F)(F)F)c1cnn2ccc(N3CCNCC4(CC4)C3)nc12 [Example 64, 5-(5,8-diazaspiro[2.6]non-5-yl)-N-[1-(2,2-difluoroethyl)-3-(trifluoromethyl)-1H-pyrazol-4-yl]pyrazolo[1,5-a]pyrimidine-3-carboxamide trifluoroacetate]"
7,124,"N[C@@H]1[C@H](Nc2ccn3ncc(C(=O)Nc4cscc4C(F)F)c3n2)CCCC1(F)F [Example 121, 5-{[(1R,2R)-2-amino-3,3-difluorocyclohexyl]amino}-N-[4-(difluoromethyl)thiophen-3-yl]pyrazolo[1,5-a]pyrimidine-3-carboxamide trifluoroacetate]"
8,8,"N[C@H]1CCCC[C@H]1Nc1ccn2ncc(C(=O)Nc3ccccc3C(F)F)c2n1 [Example 131, 5-{[(1R,2S)-2-aminocyclohexyl]amino}-N-[2-(difluoromethyl)phenyl] pyrazolo[1,5-a]pyrimidine-3-carboxamide trifluoroacetate]"
9,3,"Cn1cc(NC(=O)c2cnn3ccc(N4C[C@@H]5CC[C@H]4CN5)nc23)c(C(F)F)n1 (single isomer, unassigned) [Example 158, 5-[(1S,4S)- or (1R,4R)-2,5-diazabicyclo[2.2.2]oct-2-yl]-N-[3-(difluoromethyl)-1-methyl-1H-pyrazol-4-yl]pyrazolo[1,5-a]pyrimidine-3-carboxamide trifluoroacetate]"
10,1,"N#Cc1ccccc1NC(=O)c1cnn2ccc(N[C@@H]3CCCC[C@@H]3N)nc12 [Example 265, 5-(((1R,2S)-2-Aminocyclohexyl)amino)-N-(2-cyanophenyl)pyrazolo[1,5-a]pyrimidine-3-carboxamide]"
11,62,"CC1CN(c2ccn3ncc(C(=O)Nc4cn(C)nc4C(F)(F)F)c3n2)C(C)CN1 (stereo not drawn) [Example 79, 5-(2,5-dimethylpiperazin-1-yl)-N-[1-methyl-3-(trifluoromethyl)-1H-pyrazol-4-yl]pyrazolo[1,5-a]pyrimidine-3-carboxamide trifluoroacetate]"
